Values quoted from earlier work as cited in patent US5300300A, “Controlled release gastroresistant pharmaceutical formulations for oral administration containing bile acids and their salts” (Alfa Wassermann S.p.A., priority 1991, dated 1994).

What was measured:
[1] = complete solubilization takes place only at this pH

Structure (SMILES): C[C@H](CCC(=O)O)[C@H]1CC[C@H]2[C@@H]3[C@@H](O)C[C@@H]4C[C@H](O)CC[C@]4(C)[C@H]3CC[C@]12C [ursodeoxycholic acid]
- dissolution in the intestine (after having crossed the stomach unabsorbed and undissolved): dissolve very slowly in the intestine
- intestinal pH needed for complete solubilization and absorption (intestinal pH, completely solubilized and absorbed only when exceeded): > 8.4 pH
- pH of complete solubilization [1]: 8.47 pH
